# Read-outs that look alike come from different tables or passages of the source.
# Key:
# [1] = test system: Acinetobacter baumannii NT5-1 – tet(X5); assay: microbe, parasite or virus in culture; assay type: cell-based; details: for MIC: Acinetobacter baumannii, read-out: Tet(X) Inhibitor MIC; for Combination (Antibiotic/Inhibitor) MICs: antibiotic / Combination (Antibiotic/Inhibitor) MICs: inhibitor: lowest FICI
# Experimental: (§1) MIC tests and checkerboard assays were performed in U-bottom, 96-well microtiter plates using a modified broth microdilution protocol following CLSI guidelines. Cation-adjusted Mueller-Hinton Broth (CAMHB) was prepared fresh on the day of testing.[74] […] Bacterial colonies were selected from an overnight culture on MHA plates (supplemented with 0.2%w/vL-arabinose for E. coli TOP10 containing pBAD-TOPO-Tet(X4)) and were suspended in 0.9% saline solution to achieve a 0.5 McFarland standard. A 100 μL aliquot of this suspension was then diluted into 9.9 mL of CAMHB to yield approximately 1.5 × 10^6 cfu mL^−1. 50 μL of the suspension was then added to each well of a microtiter plates. Plates were incubated at 37 °C for 18 h. At least 2 replicates were conducted for each combination. E. coli TOP10 + pBAD-TOPO-Tet(X4) cells were grown in the absence and presence of 0.2%w/vL-arabinose. Analysis of the MIC and checkerboard results were carried out by visual inspection of growth, with and without resazurin dye, an oxidation–reduction indicator.[75] As a measure of synergy, fractional inhibitory concentration index (FICI) was calculated as FICA + FICB, where FICA and FICB are the MICcombination/MICalone for each agent, respectively.[76] Results were interpreted as follows: synergistic (<0.5), indifferent (1.0–4.0) or antagonistic (>4.0).[64] In cases where the MIC exceeded or was below the measured range, the borderline value was taken to calculate the FIC index.
# [2] = test system: Escherichia coli T-24a – tet(X4); assay: microbe, parasite or virus in culture; assay type: cell-based; details: for MIC: Escherichia coli, read-out: Tet(X) Inhibitor MIC, alone; for Combination (Antibiotic/Inhibitor) MICs: antibiotic / Combination (Antibiotic/Inhibitor) MICs: inhibitor: lowest FICI
# Experimental: as §1
# [3] = test system: Proteus penneri NT6-2 – tet(X6); assay: microbe, parasite or virus in culture; assay type: cell-based; details: for MIC: Proteus penneri, read-out: Tet(X) Inhibitor MIC; for Combination (Antibiotic/Inhibitor) MICs: antibiotic / Combination (Antibiotic/Inhibitor) MICs: inhibitor: lowest FICI
# Experimental: as §1
# [4] = molecular target: Tet(X4) (Escherichia coli, UniProt A0A3T0V9Y5); assay: biochemical; details: 20 μM tigecycline, 50 nM Tet(X4), 100 μM NADPH, 5 mM MgCl2, 1 μM FAD, 100 mM TAPS pH 8.5; read-out: IC50, UPLC assay
# Method in brief: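 Endpoint turnover assay: 100 nM Tet(X4) with […] and 10 mM MgCl2 in 100 mM TAPS pH 8.5, preincubated with inhibitor 15 min at 30 °C, then 40 μM tigecycline plus 200 μM NADPH added […] for 20 min at 30 °C.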
# [5] = test system: E. coli TOP10 containing plasmid pBAD-TOPO-Tet(X4); assay: Broth microdilution MIC and checkerboard assay; assay type: cell-based, Escherichia coli; details: for MIC: Escherichia coli; for Tet(X) inhibitor MIC: alone; for reduction of the tigecycline MIC: at high concentrations of inhibitor; for Combination (Antibiotic/Inhibitor) MICs: antibiotic / Combination (antibiotic/inhibitor) MIC: inhibitor / Combination (Antibiotic/Inhibitor) MICs: inhibitor / Combination (antibiotic/inhibitor) MIC: antibiotic: lowest FICI; for Combination (antibiotic/inhibitor) MIC: inhibitor: inhibitor in combination with tigecycline; for Combination (antibiotic/inhibitor) MIC: antibiotic: tigecycline in combination with the inhibitor
# Method in brief: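 E. coli TOP10 with pBAD-TOPO-Tet(X4), […], tested by CLSI broth microdilution in CAMHB, ~1.5 × 10^6 cfu mL^−1 inoculum, 37 °C, 18 h. Checkerboard of seven 2-fold inhibitor dilutions × ten dilutions; growth read visually ± resazurin; FICI = FICA + FICB.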
# [6] = inhibitor in combination with tigecycline
# [7] = tigecycline in combination with the inhibitor
# [8] = read-out: Tet(X) Inhibitor MIC, alone, without L-arabinose induction
# [9] = induced with 0.2%w/v L-arabinose
# [10] = with doxycycline, 0.2%w/v L-arabinose
# [11] = with doxycycline, no L-arabinose
# [12] = with tetracycline, 0.2%w/v L-arabinose
# [13] = with tetracycline, no L-arabinose
# [14] = with tigecycline, 0.2%w/v L-arabinose
# [15] = with tigecycline, without L-arabinose
compound,measurement,setting,value
[H]/N=C(/NCCCCC)N/N=C/c1c[nH]c2ccc(OC)cc12 [Tegaserod],MIC,[1],32 µg/mL
same,Combination (Antibiotic/Inhibitor) MICs: antibiotic,[1]; doxycycline with tegaserod,16 µg/mL
same,Combination (Antibiotic/Inhibitor) MICs: inhibitor,[1]; [6],16 µg/mL
same,Combination (Antibiotic/Inhibitor) MICs: inhibitor,[1]; tegaserod with doxycycline,4 µg/mL
same,Combination (Antibiotic/Inhibitor) MICs: inhibitor,[1]; tegaserod with tetracycline,8 µg/mL
same,Combination (Antibiotic/Inhibitor) MICs: antibiotic,[1]; tetracycline with tegaserod,128 µg/mL
same,Combination (Antibiotic/Inhibitor) MICs: antibiotic,[1]; [7],1 µg/mL
same,FICI,[1]; with doxycycline,0.6
same,Outcome,[1]; with doxycycline,indifferent (indifferent (0.5-4.0))
same,FICI,[1]; with tetracycline,1.3
same,Outcome,[1]; with tetracycline,indifferent (indifferent (0.5-4.0))
same,FICI,[1]; with tigecycline,0.6
same,Outcome,[1]; with tigecycline,indifferent (indifferent (0.5-4.0))
same,MIC,[2]; E. coli T-24a,16 µg/mL
same,Tet(X) inhibitor MIC,"[2]; alone, E. coli T-24a",32 µg/mL
same,Combination (Antibiotic/Inhibitor) MICs: antibiotic,[2]; doxycycline with tegaserod,4 µg/mL
same,Combination (Antibiotic/Inhibitor) MICs: inhibitor,[2]; [6],8 µg/mL
same,Combination (Antibiotic/Inhibitor) MICs: inhibitor,[2]; tegaserod with doxycycline,16 µg/mL
same,Combination (Antibiotic/Inhibitor) MICs: inhibitor,[2]; tegaserod with tetracycline,16 µg/mL
same,Combination (Antibiotic/Inhibitor) MICs: antibiotic,[2]; tetracycline with tegaserod,32 µg/mL
same,Combination (Antibiotic/Inhibitor) MICs: antibiotic,[2]; [7],4 µg/mL
same,FICI,[2]; with doxycycline,0.6
same,Outcome,[2]; with doxycycline,indifferent (indifferent (0.5-4.0))
same,FICI,[2]; with tetracycline,0.8
same,Outcome,[2]; with tetracycline,indifferent (indifferent (0.5-4.0))
same,FICI,[2]; with tigecycline,0.8
same,Outcome,[2]; with tigecycline,indifferent (indifferent (0.5-4.0))
same,MIC,[3],64 µg/mL
same,Combination (Antibiotic/Inhibitor) MICs: antibiotic,[3]; doxycycline with tegaserod,8 µg/mL
same,Combination (Antibiotic/Inhibitor) MICs: inhibitor,[3]; [6],16 µg/mL
same,Combination (Antibiotic/Inhibitor) MICs: inhibitor,[3]; tegaserod with doxycycline,32 µg/mL
same,Combination (Antibiotic/Inhibitor) MICs: inhibitor,[3]; tegaserod with tetracycline,32 µg/mL
same,Combination (Antibiotic/Inhibitor) MICs: antibiotic,[3]; tetracycline with tegaserod,16 µg/mL
same,Combination (Antibiotic/Inhibitor) MICs: antibiotic,[3]; [7],4 µg/mL
same,FICI,[3]; with doxycycline,1.0
same,Outcome,[3]; with doxycycline,indifferent (indifferent (0.5-4.0))
same,FICI,[3]; with tetracycline,1.0
same,Outcome,[3]; with tetracycline,indifferent (indifferent (0.5-4.0))
same,FICI,[3]; with tigecycline,0.8
same,Outcome,[3]; with tigecycline,indifferent (indifferent (0.5-4.0))
same,IC50,[4],25.9 ± 2.4 µM
same,MIC,"[5]; read-out: Tet(X) Inhibitor MIC, alone, 0.2%w/v L-arabinose (Table S7)",16 µg/mL
same,MIC,[5]; [8],16 µg/mL
same,MIC,"[5]; read-out: Tet(X) inhibitor MIC, alone, induced with 0.2%w/v L-arabinose",16 to 64 µg/mL
same,Tet(X) inhibitor MIC,[5]; [9],16 µg/mL
same,reduction of the tigecycline MIC,[5]; 0.2%w/v L-arabinose,2–4 fold
same,Combination (Antibiotic/Inhibitor) MICs: antibiotic,"[5]; doxycycline with tegaserod, 0.2%w/v L-arabinose",16 µg/mL
same,Combination (Antibiotic/Inhibitor) MICs: antibiotic,"[5]; doxycycline with tegaserod, no L-arabinose",8 µg/mL
same,Combination (antibiotic/inhibitor) MIC: inhibitor,[5]; 0.2%w/v L-arabinose,8 µg/mL
same,Combination (antibiotic/inhibitor) MIC: inhibitor,[5]; without L-arabinose,16 µg/mL
same,Combination (Antibiotic/Inhibitor) MICs: inhibitor,"[5]; tegaserod with doxycycline, 0.2%w/v L-arabinose",4 µg/mL
same,Combination (Antibiotic/Inhibitor) MICs: inhibitor,"[5]; tegaserod with doxycycline, no L-arabinose",0.5 µg/mL
same,Combination (Antibiotic/Inhibitor) MICs: inhibitor,"[5]; tegaserod with tetracycline, 0.2%w/v L-arabinose",8 µg/mL
same,Combination (Antibiotic/Inhibitor) MICs: inhibitor,"[5]; tegaserod with tetracycline, no L-arabinose",4 µg/mL
same,Combination (Antibiotic/Inhibitor) MICs: antibiotic,"[5]; tetracycline with tegaserod, 0.2%w/v L-arabinose",64 µg/mL
same,Combination (Antibiotic/Inhibitor) MICs: antibiotic,"[5]; tetracycline with tegaserod, no L-arabinose",16 µg/mL
same,Combination (antibiotic/inhibitor) MIC: antibiotic,[5]; 0.2%w/v L-arabinose,1 µg/mL
same,Combination (antibiotic/inhibitor) MIC: antibiotic,[5]; without L-arabinose,0.25 µg/mL
same,FICI,[5]; [10],0.8
same,Outcome,[5]; [10],indifferent (indifferent (0.5-4.0))
same,FICI,[5]; [11],1.0
same,Outcome,[5]; [11],indifferent (indifferent (0.5-4.0))
same,FICI,[5]; [12],1.0
same,Outcome,[5]; [12],indifferent (indifferent (0.5-4.0))
same,FICI,[5]; [13],2.0
same,Outcome,[5]; [13],indifferent (indifferent (0.5-4.0))
same,FICI,[5]; [14],0.8
same,Outcome,[5]; [14],Indifferent (indifferent (0.5–4.0))
same,FICI,"[5]; with tigecycline, 0.2%w/v L-arabinose, listed as tegaserod",0.5-1
same,FICI,[5]; [15],2
same,Outcome,[5]; [15],indifferent (indifferent (0.5-4.0))
CN1CCN(CCCN2c3ccccc3Sc3ccc(C(F)(F)F)cc32)CC1 [Trifluoperazine],MIC,[1],128 µg/mL
same,Combination (Antibiotic/Inhibitor) MICs: inhibitor,[1]; [6],64 µg/mL
same,Combination (Antibiotic/Inhibitor) MICs: antibiotic,[1]; [7],1 µg/mL
same,FICI,[1]; with tigecycline,0.6
same,Outcome,[1]; with tigecycline,indifferent (indifferent (0.5-4.0))
same,MIC,[2]; E. coli T-24a,256 µg/mL
same,Combination (Antibiotic/Inhibitor) MICs: inhibitor,[2]; [6],32 µg/mL
same,Combination (Antibiotic/Inhibitor) MICs: antibiotic,[2]; [7],8 µg/mL
same,FICI,[2]; with tigecycline,0.6
same,Outcome,[2]; with tigecycline,indifferent (indifferent (0.5-4.0))
same,MIC,[3],> 128 µg/mL
same,Combination (Antibiotic/Inhibitor) MICs: inhibitor,[3]; [6],128 µg/mL
same,Combination (Antibiotic/Inhibitor) MICs: antibiotic,[3]; [7],4 µg/mL
same,FICI,[3]; with tigecycline,1.5
same,Outcome,[3]; with tigecycline,indifferent (indifferent (0.5-4.0))
same,IC50,[4],83.8 ± 21.4 µM
same,MIC,[5]; [8],64 µg/mL
same,Tet(X) inhibitor MIC,[5]; [9],64 µg/mL
same,Tet(X) inhibitor MIC,"[5]; induced with 0.2%w/v L-arabinose, listed as trifluoperazine",16 to 64 µg/mL
same,reduction of the tigecycline MIC,[5]; 0.2%w/v L-arabinose,2–4 fold
same,Combination (antibiotic/inhibitor) MIC: inhibitor,[5]; 0.2%w/v L-arabinose,8 µg/mL
same,Combination (antibiotic/inhibitor) MIC: inhibitor,[5]; without L-arabinose,32 µg/mL
same,Combination (antibiotic/inhibitor) MIC: antibiotic,[5]; 0.2%w/v L-arabinose,2 µg/mL
same,Combination (antibiotic/inhibitor) MIC: antibiotic,[5]; without L-arabinose,0.13 µg/mL
same,FICI,[5]; [14],0.6
same,Outcome,[5]; [14],Indifferent (indifferent (0.5–4.0))
same,FICI,"[5]; with tigecycline, 0.2%w/v L-arabinose, listed as trifluoperazine",0.5-1
same,FICI,[5]; [15],1
same,Outcome,[5]; [15],indifferent (indifferent (0.5-4.0))
